According to patent US20260250318A1, “COMPOSITIONS AND METHODS FOR CROSSING THE BLOOD BRAIN BARRIER” (VOYAGER THERAPEUTICS, INC., priority 2022, published 2026):

Experiments:
Conditions in all cases: synthetic library passage 3, intravenous, relative to wild-type AAV9
[1] = test system: brain, spinal cord, and DRG of the NHPs; test: NGS fold enrichment of synthetic library (passage 3) in NHPs, first cross-species screen; format: in vivo, cynomolgus macaques (Macaca fascicularis)
How it was run: (§1)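 Fold enrichment versus wild-type AAV9 was derived by NGS of RT-PCR-amplified RNA from nervous tissue, collected e.g. 28 days after IV dosing […]. The library (passage 3) was given to two NHPs aged 2-4 years and to 6-8-week BALB/c and C57Bl/6 mice (n=3 each).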

brain [2] = test: NGS fold enrichment of synthetic library (passage 3) in C57Bl/6 mice, first cross-species screen; format: in vivo
How it was run: as §1

brain [3] = test: NGS fold enrichment of synthetic library (passage 3) in BALB/c mice, first cross-species screen; format: in vivo
How it was run: as §1

[4] = RNA from spinal cord of NHPs, NGS
[5] = RNA from brain of C57Bl/6 mice, NGS
[6] = RNA from brain of BALB/c mice, NGS

Sequence | Fold enrichment over AAV9 in the brain of NHPs ([1]; RNA NGS, brain of NHPs) [fold] | Fold enrichment over AAV9 in the spinal cord of NHPs ([1]; RNA NGS, spinal cord of NHPs) [fold] | Fold enrichment over AAV9 in the brain of Mice (C57Bl/6) (brain [2]; RNA NGS, brain of C57Bl/6 mice) [fold] | Fold enrichment over AAV9 in the brain of Mice (BALB/c) (brain [3]; RNA NGS, brain of BALB/c mice) [fold] | Fold enrichment over AAV9 in the brain of NHPs ([1]; RNA from brain of NHPs, NGS) [fold] | Fold enrichment over AAV9 in the spinal cord of NHPs [1, 4] [fold] | Fold enrichment over AAV9 in the brain of Mice (C57Bl/6) (brain [2]; [5]) [fold] | Fold enrichment over AAV9 in the brain of Mice (BALB/c) (brain [3]; [6]) [fold]
GSGQNQQSKQQVLT | 1.019 | 1.494 | 1.428 | 1.256 | – | – | – | –
GNIQWQGSGQNQQT | 2.468 | 6.266 | 1.182 | 0.837 | – | – | – | –
GSGIAAQRTQNQQT | 1.665 | 2.691 | 1.062 | 0.754 | – | – | – | –
GSGQNQQLSGKSVT | 1.070 | 1.524 | 1.276 | 0.930 | – | – | – | –
GLSAEKSSGQNQQT | 1.047 | 7.203 | 0.629 | 0.303 | – | – | – | –
GSGYKAARPQNQQT | 1.803 | 0.000 | 1.418 | 0.337 | – | – | – | –
GSGQNRAHAFLQQT | 1.795 | 0.000 | 1.200 | 1.271 | – | – | – | –
GSRNGHAVGQNQQT | 1.574 | 2.688 | 0.434 | 0.939 | – | – | – | –
GSGSPHARMQNQQT | 56.138 | 22.690 | 7.795 | 4.164 | – | – | – | –
GSGQNQQARPLELT | 1.061 | 0.059 | 0.389 | 0.252 | – | – | – | –
GPPQHMTSGQNQQT | 1.457 | 1.547 | 0.509 | 0.677 | – | – | – | –
GSSVGSPIGQNQQT | 1.584 | 3.574 | 1.059 | 0.706 | – | – | – | –
GSGQILHSVPNQQT | 1.752 | 1.316 | 0.398 | 0.240 | – | – | – | –
GSRTTQVIGQNQQT | 1.570 | 1.838 | 0.773 | 0.564 | – | – | – | –
GSGQLGLSVTNQQT | – | – | – | – | 1.364 | 6.906 | 1.395 | 0.376
GSIGYAGQGQNQQT | 2.157 | 4.951 | 1.604 | 0.712 | – | – | – | –

Sequence | Fold enrichment over AAV9 in the brain of NHPs ([1]; RNA NGS, brain of NHPs) [fold] | Fold enrichment over AAV9 in the spinal cord of NHPs ([1]; RNA NGS, spinal cord of NHPs) [fold] | Fold enrichment over AAV9 in the brain of Mice (C57Bl/6) (brain [2]; RNA NGS, brain of C57Bl/6 mice) [fold] | Fold enrichment over AAV9 in the brain of Mice (BALB/c) (brain [3]; RNA NGS, brain of BALB/c mice) [fold] | Fold enrichment over AAV9 in the brain of NHPs ([1]; RNA from brain of NHPs, NGS) [fold] | Fold enrichment over AAV9 in the spinal cord of NHPs [1, 4] [fold] | Fold enrichment over AAV9 in the brain of Mice (C57Bl/6) (brain [2]; [5]) [fold] | Fold enrichment over AAV9 in the brain of Mice (BALB/c) (brain [3]; [6]) [fold]
GSGQNQQTLPSLSL | 1.084 | 1.758 | 0.527 | 0.175 | – | – | – | –
GGGPMAGSGQNQQT | 1.735 | 2.815 | 1.049 | 0.372 | – | – | – | –
GSGQNQQPLDTSRT | 1.015 | 0.775 | 0.491 | 0.376 | – | – | – | –
GSGLRQTSQQNQQT | 1.537 | 2.067 | 0.978 | 0.705 | – | – | – | –
GSGMPVILGQNQQT | 2.005 | 0.150 | 0.840 | 0.287 | – | – | – | –
GSGQNQQTAHAFNI | – | – | – | – | 1.132 | 3.404 | 0.699 | 0.729
GSGQNQQTVGGKNL | – | – | – | – | 1.203 | 0.128 | 0.777 | 1.051
GHAHYQASGQNQQT | – | – | – | – | 1.377 | 7.299 | 0.803 | 0.745
GAVGHSYSGQNQQT | 1.706 | 0.808 | 0.306 | 0.536 | – | – | – | –
GAYGMVSSGQNQQT | 1.518 | 3.469 | 0.732 | 0.773 | – | – | – | –
GSGQNQQTAMRSTT | 1.581 | 2.588 | 0.656 | 0.665 | – | – | – | –
GSGSTHSKAQNQQT | – | – | – | – | 1.410 | 0.515 | 0.921 | 0.801
GSGLDYSQRQNQQT | 2.056 | 0.837 | 0.484 | 0.217 | – | – | – | –
GSLLQAHSGQNQQT | 2.182 | 1.008 | 0.575 | 0.748 | – | – | – | –
GLAGHTVSGQNQQT | 3.632 | 0.229 | 0.972 | 0.202 | – | – | – | –
GSGQNQQALHNPHT | 1.553 | 0.664 | 0.638 | 0.213 | – | – | – | –
